# Laboratory results published in patent US20060167109A1, “Methods of reducing rhinovirus contagion and related compositions” (priority 2002, published 2006).
# Tests used:
# [1] = Rat tissue distribution studies; assay type: in vivo; details: estimated
# Procedure: A 400 mg dose of pleconaril maintains antiviral concentrations at or above the concentration that inhibits 90% of the protoype HRV serotypes (90% Minimal Inhibitory Concentration or mic90) for a significant portion of the dosing interval after the first dose of pleconaril. A nasal tissue to plasma concentration ratio of five was estimated for pleconaril from rat tissue distribution studies.
# HRV3 [2] = experiment: Time of drug addition; assay type: cell-based, human rhinovirus
# Procedure: To determine the stage in the virus replication cycle that is affected by pleconaril, time of drug addition studies were conducted. Pleconaril was added to cells either during viral attachment or at various times thereafter. Viral replication was allowed to proceed for a single cycle of growth (10-12 hours), at which time the cells were lysed by a freeze-thaw cycle, residual pleconaril was removed by chloroform extraction, and virus yield was determined in the cytopathic effect assay. A 2 μM concentration of pleconaril inhibited greater than 90% of the yield of HRV3 from a single cycle of growth if present during the virus attachment period.
# Twenty-four well plates (Costar 3524) of HeLa cells were infected in duplicate with 250 μL of HRV3 in M199 medium with 5% FBS at a multiplicity of infection (MOI) of approximately 1 PFU/cell for 1 hour at room temperature. During a treatment (the “−1 h” timepoint), one set of duplicate wells for each virus received 2 μM pleconaril, while the remaining wells received DMSO (0.5% final concentration). After attachment, the cells were washed twice with 1 mL of DPBS, and then overlaid with fresh medium. Pleconaril (2 μM final concentration) was added to the wells at the indicated times. The plates were incubated at 33° C. (HRV3) for 10 hours, at which time they were frozen at −80° C. […]
# HRV serotype 14 = experiment: Reversibility of pleconaril binding; assay type: cell-based, human rhinovirus
# Procedure: (§1) The first question presented is whether pleconaril could bind to human rhinoviruses irreversibly. Various HRVs were incubated overnight at 4° C. with pleconaril at a concentration approximately 10 times the IC50 value. Parallel samples were incubated in medium with 0.5% dimethyl sulfoxide (DMSO) alone. The next day, samples were diluted 10,000-fold into pleconaril-free medium and incubated an additional 24 hrs at 4° C., followed by titration by plaque assay.
# (§2) After 24 hours, virus samples were diluted 10,000-fold in culture medium and incubated an additional 24 hours at 4° C. Virus titers in the DMSO- and pleconaril-treated samples were then determined by plaque assay in the appropriate cell line as described below.
# (§3) In some experiments, virus titers were determined by plaque assay. Cells in 6 well plates were infected with 1 mL of 10-fold dilutions of virus in duplicate for 1 hour at the appropriate incubation temperature. The inoculum was then removed and the cells were overlaid with 3 mL of agarose overlay medium (Eagles minimum essential medium (Life Technologies, Grand Island, N.Y.) with 50 mM Hepes buffer, pH 7.2, 5% FBS, antibiotics, and 1.5% SeaPlaque (HRVs)). The HRV overlay medium was further supplemented with 30 mM MgCl2 and 15 μg/mL DEAE dextran. […] After rinsing and drying, plaques were read manually.
# HRV serotype 1A = experiment: Reversibility of pleconaril binding; assay type: cell-based, human rhinovirus
# Procedure: as §1, §2, §3
# HRV serotype 2 = experiment: Reversibility of pleconaril binding; assay type: cell-based, human rhinovirus
# Procedure: as §1, §2, §3
# HRV serotype 3 = experiment: Reversibility of pleconaril binding; assay type: cell-based, human rhinovirus
# Procedure: as §1, §2, §3
# HRV serotype 50 = experiment: Reversibility of pleconaril binding; assay type: cell-based, human rhinovirus
# Procedure: as §1, §2, §3
# HRV serotype 5 = experiment: Reversibility of pleconaril binding; assay type: cell-based, human rhinovirus; details: about 10 times IC50, then diluted 10,000-fold, plaque assay
# Procedure: as §1, §2, §3
# HRV serotype 89 = experiment: Reversibility of pleconaril binding; assay type: cell-based, human rhinovirus
# Procedure: as §1, §2, §3
# HRV3 [3] = experiment: Low pH inactivation; assay type: cell-based, human rhinovirus; details: 2 μM, pH 5.2, FIG. 4
# Procedure: As a second indication of the direct interaction of the drug with the virion capsid, an experiment was conducted to examine the ability of pleconaril to protect HRV3 from low pH inactivation.
# Approximately […] plaque forming units (PFU) of virus were incubated with 0.5% DMSO or 2 μM pleconaril (in 0.5% DMSO) overnight at 4° C. For HRV3, samples were diluted into sodium acetate buffer (1 M, pH 5.2 or pH 7.0) for 30 minutes on ice followed by neutralization with 2 volumes of 1M Tris-HCl, pH 8.0. All samples were extracted twice with chloroform prior to titration in the viral cytopathic effect assay on HeLa cells (see below).
# HRV3 [4] = experiment: Multiple rounds of replication; assay type: cell-based, human rhinovirus; details: 2 μM added four hours post-attachment
# Procedure: The next experiments were designed to answer the question as to whether the addition of pleconaril after the uncoating stage could affect the ability of progeny virions to initiate subsequent rounds of replication, i.e. reduce the infectivity of progeny virions. Cells were infected with HRV3 at a low MOI (0.01 pfu/cell) at room temperature. After removal of unattached virus, fresh medium was added and the cells were shifted to the higher temperature to allow uncoating to proceed. Four hours post-attachment, pleconaril or DMSO alone was added to the cultures, and plates were frozen at 12 hours (upon completion of a single cycle of replication) and 24 hours (upon completion of a second round of replication) post-infection. Virus yield from both rounds of replication was determined in the viral cytopathic effect assay.
# HeLa cells in 6 well plates were infected with HRV3 at an MOI of 0.001 or 0.01 pfu/cell for 1 hour at room temperature in duplicate. The virus inoculum was then removed and the monolayers washed twice with DPBS. The cells were overlaid with 3 mL of M199 medium with 5% FBS and placed at 33° C. (HRV3). After 4 hrs, half of the wells received pleconaril to a final concentration of 2 μM in 0.5% DMSO, and half received DMSO alone. […] Virus yield was determined in the cytopathic effect assay after 2 cycles of chloroform extraction.
compound,measurement,setting,value
"Cc1cc(CCCOc2c(C)cc(-c3noc(C(F)(F)F)n3)cc2C)on1 [pleconaril, 3-[3,5-dimethyl-4-[3-(3-methyl-5-isoxazolyl)propoxy]phenyl]-5-(trifluoromethyl)-1,2,4-oxadiazole]",nasal tissue to plasma concentration ratio,[1],five
same,reduction in virus yield,"HRV3 [2]; 2 μM, drug addition after attachment (0 hour timepoint)",< 1 log10
same,inhibition at 2 µM,"HRV3 [2]; Human rhinovirus sp., HRV3, present during the virus attachment period, read-out: inhibition of the yield of HRV3 from a single cycle of growth",> 90%
same,reversibility of binding to the virion,HRV serotype 14; HRV serotype 14,binds irreversibly
same,% Recovery of input infectious virus (% SD),"HRV serotype 14; serotype 14, about 10 times IC50, then diluted 10,000-fold, plaque assay",16.4 (33.9) %
same,reversibility of binding to the virion,HRV serotype 1A; HRV-1A,reversible upon dilution
same,% Recovery of input infectious virus (% SD),"HRV serotype 1A; serotype 1A, about 10 times IC50, then diluted 10,000-fold, plaque assay",85.4 (52.8) %
same,reversibility of binding to the virion,HRV serotype 2; HRV-2,reversible upon dilution
same,% Recovery of input infectious virus (% SD),"HRV serotype 2; serotype 2, about 10 times IC50, then diluted 10,000-fold, plaque assay",65.8 (51.3) %
same,reversibility of binding to the virion,HRV serotype 3; HRV-3,reversible upon dilution
same,% Recovery of input infectious virus (% SD),"HRV serotype 3; serotype 3, about 10 times IC50, then diluted 10,000-fold, plaque assay",92.8 (40.4) %
same,reversibility of binding to the virion,HRV serotype 50; HRV serotype 50,binds irreversibly
same,% Recovery of input infectious virus (% SD),"HRV serotype 50; serotype 50, about 10 times IC50, then diluted 10,000-fold, plaque assay",11.9 (40) %
same,% Recovery of input infectious virus (% SD),HRV serotype 5,118 (53.5) %
same,reversibility of binding to the virion,HRV serotype 89; HRV serotype 89,binds irreversibly
same,% Recovery of input infectious virus (% SD),"HRV serotype 89; serotype 89, about 10 times IC50, then diluted 10,000-fold, plaque assay",9.9 (100) %
same,protection from low pH inactivation,HRV3 [3],protect HRV3 from low pH-induced degradation
same,yield of progeny virions from the first round of virus replication,HRV3 [4]; 12 hours,little effect
same,second round of replication,HRV3 [4]; 24 hours,completely prevented
